In PubChem BioAssay AID1259411 (Chemical Carcinogenesis Research Information System (CCRIS), 2018):
Active and inactive are the calls of the source. No rule for the calls is given here.

Tested on: rodent carcinogenicity bioassays, tumor incidence
Experiment: CCRIS carcinogenicity studies
Method in brief: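 NCI-built, expert-reviewed records of carcinogenicity and related test outcomes (mutagenicity, tumor promotion/inhibition) compiled from published and report sources, historical span 1985-2011, not updated.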

With `[O-][Cl+]O` the carcinogen call (Species: RAT, Strain/Sex: F344/FEMALE, Route: ORAL, Dose: 0, 0.03, 0.06% IN DRINKING WATER FOR 85 WK (STUDY DURATION: 85 WK), Dose: 0, 0.03, 0.06% IN DRINKING WATER FOR 85 WK (STUDY DURATION: 85 WK)) was “inactive; negative” and the carcinogen call (Species: RAT, Strain/Sex: F344/MALE, Route: ORAL, Dose: 0, 0.03, 0.06% IN DRINKING WATER FOR 85 WK (STUDY DURATION: 85 WK), Dose: 0, 0.03, 0.06% IN DRINKING WATER FOR 85 WK (STUDY DURATION: 85 WK)) was “inactive; negative”.
For `CC(=O)Nc1ccc2ccc3cccc4ccc1c2c34`, the carcinogen call (Species: RAT, Strain/Sex: STRAIN-CD/FEMALE, Route: INTRAPERITONEAL, Dose: 0, 67 UMOL/KG BW IN DMSO 3/WK FOR 4 WK (STUDY DURATION: 61 WK)) was “inactive; negative” and the carcinogen call (Species: RAT, Strain/Sex: STRAIN-CD/FEMALE, Route: INTRAPERITONEAL, Dose: 0, 67 UMOL/KG/BW IN 25 UMOL/ML DMSO 3/WK FOR 4 WK (TOTAL DOSE: 0; 119 UMOL) ADMINISTERED TO WEANLING RATS (STUDY DURATIO, Dose: 0, 67 UMOL/KG/BW IN 25 UMOL/ML DMSO 3/WK FOR 4 WK (TOTAL DOSE: 0; 119 UMOL) ADMINISTERED TO WEANLING RATS (STUDY DURATIO) was “inactive; negative”.
With `Clc1ccc(C(c2ccc(Cl)cc2)C(Cl)Cl)cc1` the carcinogen call (Species: MOUSE, Strain/Sex: B6C3F1/FEMALE, Route: ORAL, Dose: 0, 411, 822 PPM IN DIET FOR 78 WK (STUDY DURATION: 93 WK), Dose: 0, 411, 822 PPM IN DIET FOR 78 WK (STUDY DURATION: 93 WK)) was “inactive; negative”, the carcinogen call (Species: MOUSE, Strain/Sex: B6C3F1/MALE, Route: ORAL, Dose: 0, 411, 822 PPM IN DIET FOR 78 WK (STUDY DURATION: 93 WK), Dose: 0, 411, 822 PPM IN DIET FOR 78 WK (STUDY DURATION: 93 WK)) was “inactive; negative” and the carcinogen call (Species: MOUSE, Strain/Sex: CF-1/MALE,FEMALE, Route: ORAL, Dose: 250 PPM IN DIET, Tumor Site: Type of Lesion: LUNG) was “active; positive”. The carcinogen call (Species: RAT, Strain/Sex: OSBORNE-MENDEL/FEMALE, Route: ORAL, Dose: 0, 850, 1700 PPM IN DIET FOR 78 WK (STUDY DURATION: 113 WK), Dose: 0, 850, 1700 PPM IN DIET FOR 78 WK (STUDY DURATION: 113 WK)) was “inactive; negative” and the carcinogen call (Species: RAT, Strain/Sex: OSBORNE-MENDEL/MALE, Route: ORAL, Dose: 0, 1647, 3294 PPM IN DIET FOR 78 WK (STUDY DURATION: 113 WK), Dose: 0, 1647, 3294 PPM IN DIET FOR 78 WK (STUDY DURATION: 113 WK), Tumor Site: Type of Lesion: THYROID GLAND: FOLLICULAR CELL CARCINOMA OR ADENOMA) was “equivocal”.
With `CC(=O)OCc1c2ccccc2c2ccc3cccc4ccc1c2c43` the carcinogen call (Species: MOUSE, Strain/Sex: B6C3F1/MALE, Route: INTRAPERITONEAL, Dose: 0, 0.0025, 0.005 UMOL/G ONCE AT 12 DAYS OF AGE (STUDY DURATION: 10 MO), Dose: 0, 0.0025, 0.005 UMOL/G ONCE AT 12 DAYS OF AGE (STUDY DURATION: 10 MO), Tumor Site: Type of Lesion: LIVER: HEPATOMA) was “active; positive”.
In the case of `C#CCOc1ccc(CCNC(=O)C(OCC#C)c2ccc(Cl)cc2)cc1OC` (configuration not stated), the carcinogen call (Species: Mouse, Strain/Sex: C57BL/10J CD-1 / Female (50/Group), Route: Oral, Dose: 0, 13.2, 67.8, 284.6 mg/kg/day of 96.5% mandipropamid in diet for 80 wk, study duration 80 wk, Dose: 0, 13.2, 67.8, 284.6 mg/kg/day of 96.5% mandipropamid in diet for 80 wk, study duration 80 wk) was “inactive; negative”, the carcinogen call (Species: Mouse, Strain/Sex: C57BL/10J CD-1 / Male (50/Group), Route: Oral, Dose: 0, 10.6, 55.2, 222.7 mg/kg/day of 96.5% mandipropamid in diet for 80 wk, study duration 80 wk, Dose: 0, 10.6, 55.2, 222.7 mg/kg/day of 96.5% mandipropamid in diet for 80 wk, study duration 80 wk) was “inactive; negative” and the carcinogen call (Species: Rat, Strain/Sex: Alpk:AP SD (Wistar-derived)/Female (52/Group), Route: Oral, Dose: 0, 3.5, 17.6, 69.7 mg/kg/day of 96.5% mandipropamid in diet for 104 wk, study duration 104 wk, Dose: 0, 3.5, 17.6, 69.7 mg/kg/day of 96.5% mandipropamid in diet for 104 wk, study duration 104 wk) was “inactive; negative”. The carcinogen call (Species: Rat, Strain/Sex: Alpk:AP SD (Wistar-derived)/Male (52/Group), Route: Oral, Dose: 0, 3.0, 15.2, 61.3 mg/kg/day of 96.5% mandipropamid in diet for 104 wk, study duration 104 wk, Dose: 0, 3.0, 15.2, 61.3 mg/kg/day of 96.5% mandipropamid in diet for 104 wk, study duration 104 wk) was “inactive; negative”.
With `OCc1ccccc1` the carcinogen call (Species: MOUSE, Strain/Sex: B6C3F1/F, Route: GAVAGE, Dose: 0, 100, 200 MG/KG IN CORN OIL 5D/WK FOR 103 WK (STUDY DURATION: 106 WK), Dose: 0, 100, 200 MG/KG IN CORN OIL 5D/WK FOR 103 WK (STUDY DURATION: 106 WK)) was “inactive; negative”, the carcinogen call (Species: MOUSE, Strain/Sex: B6C3F1/M, Route: GAVAGE, Dose: 0, 100, 200 MG/KG IN CORN OIL 5D/WK FOR 103 WK (STUDY DURATION: 106 WK), Dose: 0, 100, 200 MG/KG IN CORN OIL 5D/WK FOR 103 WK (STUDY DURATION: 106 WK)) was “inactive; negative” and the carcinogen call (Species: RAT, Strain/Sex: F344/F, Route: GAVAGE, Dose: 0, 200, 400 MG/KG IN CORN OIL 5D/WK FOR 103 WK (STUDY DURATION: 105 WK), Dose: 0, 200, 400 MG/KG IN CORN OIL 5D/WK FOR 103 WK (STUDY DURATION: 105 WK)) was “inactive; negative”. For the same molecule, the carcinogen call (Species: RAT, Strain/Sex: F344/M, Route: GAVAGE, Dose: 0, 200, 400 MG/KG IN CORN OIL 5D/WK FOR 103 WK (STUDY DURATION: 105 WK), Dose: 0, 200, 400 MG/KG IN CORN OIL 5D/WK FOR 103 WK (STUDY DURATION: 105 WK)) was “inactive; negative”.
`[Cl][Fe]([Cl])[Cl]` was tested, and the carcinogen call (Species: RAT, Strain/Sex: F344/FEMALE, Route: ORAL, Dose: 0, 0.25, 0.5% IN DRINKING WATER FOR 104 WK (STUDY DURATION: 112 WK), Dose: 0, 0.25, 0.5% IN DRINKING WATER FOR 104 WK (STUDY DURATION: 112 WK)) was “inactive; negative” and the carcinogen call (Species: RAT, Strain/Sex: F344/MALE, Route: ORAL, Dose: 0, 0.25, 0.5% IN DRINKING WATER FOR 104 WK (STUDY DURATION: 112 WK), Dose: 0, 0.25, 0.5% IN DRINKING WATER FOR 104 WK (STUDY DURATION: 112 WK)) was “inactive; negative”.
With `Nc1ccc2ccccc2c1` the carcinogen call (Species: DOG, Route: ORAL, Tumor Site: Type of Lesion: URINARY BLADDER) was “active; positive”, the carcinogen call (Species: DOG, Strain/Sex: BEAGLE/FEMALE, Route: ORAL, Dose: 21.3 MG/KG 5/WK, Tumor Site: Type of Lesion: URINARY BLADDER: TRANSITIONAL CELL CARCINOMA) was “active; positive” and the carcinogen call (Species: DOG, Strain/Sex: BEAGLE/MALE, Route: ORAL, Dose: 18.4 MG/KG 5/WK, Tumor Site: Type of Lesion: URINARY BLADDER: TRANSITIONAL CELL CARCINOMA) was “active; positive”. The carcinogen call (Species: HAMSTER, Route: ORAL, Tumor Site: Type of Lesion: URINARY BLADDER) was “active; positive”, the carcinogen call (Species: HUMAN, Route: ORAL, INHALATION, DERMAL, Tumor Site: Type of Lesion: URINARY BLADDER) was “active; positive” and the carcinogen call (Species: MONKEY, Route: ORAL, Tumor Site: Type of Lesion: URINARY BLADDER) was “active; positive”. For the same molecule, the carcinogen call (Species: MOUSE, Route: ORAL, Tumor Site: Type of Lesion: LIVER) was “active; positive”.
